Columns and labels:
[1] = target: Carbonic anhydrase 9 (Homo sapiens) (UniProt Q16790); assay: Activation of human recombinant CA9 catalytic domain by stopped flow CO2 hydration assay
[2] = target: Carbonic anhydrase 2 (Homo sapiens) (UniProt P00918); assay: Activation of human recombinant CA2 by stopped flow CO2 hydration assay
[3] = target: Carbonic anhydrase 1 (Homo sapiens) (UniProt P00915); assay: Activation of human recombinant CA1 by stopped flow CO2 hydration assay
Sequence of Carbonic anhydrase 1 (Homo sapiens) (P00915 2-261 limits assumed): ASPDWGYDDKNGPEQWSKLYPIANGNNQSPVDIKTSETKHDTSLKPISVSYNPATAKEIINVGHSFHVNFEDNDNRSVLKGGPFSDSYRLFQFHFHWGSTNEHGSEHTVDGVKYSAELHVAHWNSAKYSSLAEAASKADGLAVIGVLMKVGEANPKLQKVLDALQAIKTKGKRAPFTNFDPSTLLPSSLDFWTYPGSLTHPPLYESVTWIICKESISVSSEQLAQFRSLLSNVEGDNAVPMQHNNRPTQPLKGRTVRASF

| Structure (SMILES) | KA [1] | KA [2] | KA [3] |
| --- | --- | --- | --- |
| COc1ccc(S(=O)(=O)NNC(=O)[C@@H](N)Cc2c[nH]cn2)cc1 | 27.4 µM | 38 µM | 44.8 µM |
| N#Cc1ccc(S(=O)(=O)NNC(=O)[C@@H](N)Cc2c[nH]cn2)cc1 | 17.8 µM | 28.7 µM | 40.3 µM |
| N[C@@H](Cc1c[nH]cn1)C(=O)NNS(=O)(=O)c1ccc2ccccc2c1 | 24.1 µM | 18 µM | 63.8 µM |
| N[C@@H](Cc1c[nH]cn1)C(=O)NNS(=O)(=O)c1ccc(Br)cc1 | 13.8 µM | 19.6 µM | 55.7 µM |
| N[C@@H](Cc1c[nH]cn1)C(=O)NNS(=O)(=O)c1ccc([N+](=O)[O-])cc1 | 30.5 µM | 45.6 µM | 54.7 µM |
| CC(C)(C)c1ccc(S(=O)(=O)NNC(=O)[C@@H](N)Cc2c[nH]cn2)cc1 | 29.8 µM | 45.2 µM | 78.9 µM |
| N[C@@H](Cc1c[nH]cn1)C(=O)NNS(=O)(=O)c1c(F)c(F)c(F)c(F)c1F | 30.2 µM | 50.2 µM | 42.5 µM |
| N[C@@H](Cc1c[nH]cn1)C(=O)NNS(=O)(=O)c1ccc(F)cc1 | 19.5 µM | 44.8 µM | 63.4 µM |
| Cc1ccc(S(=O)(=O)NNC(=O)[C@@H](N)Cc2c[nH]cn2)cc1 | 18.1 µM | 25 µM | 46.8 µM |
| N[C@@H](Cc1c[nH]cn1)C(=O)NNS(=O)(=O)c1ccc(I)cc1 | 14.1 µM | 0.21 µM | 76.3 µM |
| N[C@@H](Cc1c[nH]cn1)C(=O)NNS(=O)(=O)c1ccc(C(F)(F)F)cc1 | 22.4 µM | 49.5 µM | 38.9 µM |
| N[C@@H](Cc1c[nH]cn1)C(=O)NNS(=O)(=O)c1ccc(Cl)cc1 | 35.4 µM | 6.53 µM | 70.1 µM |
| N[C@@H](Cc1c[nH]cn1)C(=O)NNS(=O)(=O)c1ccc(-c2ccccc2)cc1 | 28.5 µM | 51.7 µM | 33.1 µM |
